These results are taken from patent US7169574B2, “Fluorescence detection of proteases or peptidases” (Institut National de la Sante et de la Recherche Medicale …, priority 2000, dated 2007).

For data set [1], the target named is T1, ECE (Homo sapiens, UniProt P42892).
T1 construct: made in house; host or cells: Cos-1 cells or CHO cells
T1 sequence (P42892 1-754 isoform P42892-3): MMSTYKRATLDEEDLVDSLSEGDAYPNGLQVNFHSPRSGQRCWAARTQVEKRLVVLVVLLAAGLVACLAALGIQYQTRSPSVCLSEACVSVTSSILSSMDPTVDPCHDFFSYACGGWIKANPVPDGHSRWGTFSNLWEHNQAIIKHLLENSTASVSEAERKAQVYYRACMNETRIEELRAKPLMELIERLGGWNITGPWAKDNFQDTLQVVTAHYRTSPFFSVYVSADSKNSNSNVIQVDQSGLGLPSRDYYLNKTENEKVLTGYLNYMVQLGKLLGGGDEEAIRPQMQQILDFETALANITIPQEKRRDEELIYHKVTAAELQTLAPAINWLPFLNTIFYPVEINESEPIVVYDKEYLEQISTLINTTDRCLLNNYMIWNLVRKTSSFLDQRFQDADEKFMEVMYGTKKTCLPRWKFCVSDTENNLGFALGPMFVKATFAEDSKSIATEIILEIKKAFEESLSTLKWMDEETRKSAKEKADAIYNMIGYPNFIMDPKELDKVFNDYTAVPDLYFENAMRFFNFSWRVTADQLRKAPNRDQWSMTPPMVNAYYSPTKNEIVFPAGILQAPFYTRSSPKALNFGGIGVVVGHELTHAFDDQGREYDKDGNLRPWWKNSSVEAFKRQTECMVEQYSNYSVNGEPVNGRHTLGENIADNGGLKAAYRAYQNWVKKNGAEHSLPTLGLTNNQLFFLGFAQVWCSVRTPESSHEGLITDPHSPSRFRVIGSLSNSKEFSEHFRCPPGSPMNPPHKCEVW
The experiment in a line: ECE inhibition test, fluorescence reading on 96-well microplate (Examples 3 and 4). It is filed as biochemical. As to conditions: for fluorescence intensity measured for each well: excitation 340 nm, emission 400 nm, gain 85, low value = strong inhibition, blank 67/68, control 1081/1094. The method, then: 100 μl of 50 mM Tris-maleate buffer, pH 6.5, 20 μM or 5 μM of fluorescent peptide 1s or 2s and 10 μl of a solution of ECE diluted as a function of its purity and such that the cleavage of the fluorescent substrate remains less than 5%. […] The reaction is stopped in various ways, for example heating to 90° C., abrupt cooling to 4° C., adding an organic solvent such as dioxane to 20% of the final volume, and then the reading is performed using a fluorimeter (λex=340 nm; λem=400 nm) optionally coupled to the automated analysis system. […] The controls are performed in the presence of all the reagents but without ECE or with ECE inactivated beforehand by heating at 90° C. for 5 minutes.
The inhibitory behavior of several compounds was assessed by reproducing the protocol described in Example 2.
The specific conditions selected for the assays appear below:
Preincubation is carried out for 10 minutes at 37° C. The ECE substrate is then added at an amount of 10 μM. The entire mixture is incubated for between 20 minutes and 1 hour at 37C and the reaction is then stopped either by cooling or by adding dioxane (20 μl).
The reading on cytofluor is performed at 4° C. with the following specificities: excitation 340 nm, emission 400 nm and with a gain of 85.
The assays are performed on a 96-well microplate.
The compounds were tested at two concentrations.

Data set [2] is described as follows: Stability of the fluorescence of the metabolites formed by ECE. Type of data set: physicochemical. The text has this:
The measurement of this intensity, related to a standard curve established with mixtures of the substrate and of the fluorescent metabolite formed, therefore makes it possible either to evaluate the inhibitory capacity as percentage inhibition at a set given concentration of the product P, or to precisely determine its IC50 and then its KI using the Km of the substrate and several concentrations of the product P. The extreme sensitivity of the assay makes it possible to operate in very small volumes (100 μl) with concentrations of the order of 20 μM of the substrate 1s (that is to say 2 nmole corresponding to 4.43 μg per assay) or 5 μM of the substrate 2s. The test can therefore be very easily used in 96 wells plates or more, making it possible to automate it with automatic determination of the KI values when the reading fluorimeter is connected to a computer having suitable commercial software.

The target of data set [3] is T2, endothelin-converting enzyme (ECE) (Homo sapiens, UniProt P42892).
T2 construct: made in house; host or cells: Cos-1 cells or CHO cells
T2 sequence (P42892 1-754 isoform P42892-3): T1 sequence (P42892 1-754 isoform P42892-3)
Description: Fluorimetric ECE activity assay with fluorescent peptide substrates (96-well plates). It is filed as biochemical. As to conditions: 50 mM Tris-maleate buffer, pH 6.5; calculated using the ENZFITTER program; read-out: Km (affinity constant of the enzyme for a substrate). As to the method:
Various preparations containing ECE can be used, such as, for example, recombinant human ECE-1c expressed in Cos-1 cells (Shimada et al., J. Biol. Chem. (1994) 269, 18275–18278) or CHO cells (Xu et al. Cell (1994) 78, 473–485).
In all cases, the presence of the enzyme is tested by Western blotting using an antibody and its concentration is evaluated by comparison with the purified enzyme.
The ECE activity is determined in 96-well plates, generally under the following conditions:
100 μl of 50 mM Tris-maleate buffer, pH 6.5, 20 μM or 5 μM of fluorescent peptide 1s or 2s and 10 μl of a solution of ECE diluted as a function of its purity and such that the cleavage of the fluorescent substrate remains less than 5%. […] The reaction is stopped in various ways, for example heating to 90° C., abrupt cooling to 4° C., adding an organic solvent such as dioxane to 20% of the final volume, and then the reading is performed using a fluorimeter (λex=340 nm; λem=400 nm) optionally coupled to the automated analysis system. The use of a network fluorimeter considerably further increases the sensitivity of the assay by reading the fluorescence at 377 nm. […]
The KI values for the inhibitors can be determined automatically using the degradation percentages at various concentrations and comparison with a standard range. […]

Data set [4] addresses T1, ECE. The experiment in a line: HPLC analysis of products formed on incubation with ECE. It is filed as biochemical. As to conditions: single cleavage at the PyA-pNF peptide bond. The method, then: With regard to the products formed, the analysis thereof was carried out, in order to verify the substrate selectivity, by HPLC on a nucleosil C18 column, 7 μm/300 Å (4.6×70 mm), using a buffer B (0.038% of TFA in CH3CN/H2O, 9/1 by vol.) and a gradient of 40–47% of buffer B in 10 minutes (flow rate 1 ml/min).

Where “and” joins values, the source holds several entries; their conditions need not be identical. Equal values may be shown once. Numbered stars: 1 amine (or outer) side, 2 acyl side, 3 side chain; on linkers, the order of the positions; unused ones are H or OH. Square brackets hold non-standard residues; d marks the D form. Primed or numbered codes have the meaning given here. Ends that are not written are not given here. PyA″ = pyrenylalanine, O=C([C@H](Cc1ccc2ccc3cccc4ccc1c2c34)N[*:1])[*:2]; Phe(4-NO2) = N[C@@H](Cc1ccc([N+](=O)[O-])cc1)C(=O)O

For `C[C@H](CS)C(=O)N1CCC[C@H]1C(=O)O` [C, captopril], the “fluorescence intensity measured for each well” value (from here on “fluorescence intensity measured”) at ECE [1] (compound at 5 × 10^−6 M) is 1128 and 1121; on ECE [1] (compound at 10^−6 M), 1086 and 1089.

For the molecule `NCCCC[C@H](N[C@@H](CCc1ccccc1)C(=O)O)C(=O)N1CCC[C@H]1C(=O)O` [L, lysinopril], the “fluorescence intensity measured” value at ECE [1] (compound at 5 × 10^−6 M) was 1095 and 1119; at ECE [1] (compound at 10^−6 M), 1117 and 1093.

For the molecule `CC(C)C[C@H](NP(=O)(O)O[C@@H]1O[C@@H](C)[C@H](O)[C@@H](O)[C@H]1O)C(=O)N[C@@H](Cc1c[nH]c2ccccc12)C(=O)O` [P, phosphoramidon], the “inhibitory behavior on ECE” value at ECE [1] (Table II, 10^−6 M and 5 × 10^−6 M) is given as “entirely verified”. Further, the “fluorescence intensity measured” value at ECE [1] (compound at 5 × 10^−6 M) was 140 and 133; on ECE [1] (compound at 10^−6 M), 455 and 459.

For `O=C(O)CC(=O)NC(CS)Cc1ccccc1` (centres unmarked) [R, retrothiorphan], the “fluorescence intensity measured” value on ECE [1] (compound at 5 × 10^−6 M) is 1043 and 1077; on ECE [1] (compound at 10^−6 M), 1124 and 1106.

`O=C(O)CNC(=O)C(CS)Cc1ccccc1` (centres unmarked) [T, thiorphan]: the “fluorescence intensity measured” value at ECE [1] (compound at 5 × 10^−6 M) was 1109 and 1121; at ECE [1] (compound at 10^−6 M), 1124 and 1127.

Consider Ac-Arg-Pro-Lys-Gln-Glu-PyA [peptide 2m], for which the “fluorescence of the metabolite over time” value in data set [2] was “not modified over several hours”.

“Ac-Ile-Ile-PyA (Ac-Ile-Ile-[PyA″]) [peptide 1m, fluorescent metabolite of 1s formed by ECE]”: in data set [2], the “fluorescence of the metabolite over time” value is reported as “not modified over several hours”.

Broadly, the Km is the concentration of substrate that gives half-maximal velocity. In the case of “Ac-Ile-Ile-PyA-pNF-Asn-Thr-Pro-Glu-His-Val-Val-Pro-Tyr-Gly-Leu-Gly-Ser-COOH (Ac-II[PyA″][Phe(4-NO2)]NTPEHVVPYGLGS-OH; SMILES CC[C@H](C)[C@H](NC(C)=O)C(=O)N[C@H](C(=O)N[C@@H](Cc1ccc2ccc3cccc4ccc1c2c34)C(=O)N[C@@H](Cc1ccc([N+](=O)[O-])cc1)C(=O)N[C@@H](CC(N)=O)C(=O)N[C@H](C(=O)N1CCC[C@H]1C(=O)N[C@@H](CCC(=O)O)C(=O)N[C@@H](Cc1c[nH]cn1)C(=O)N[C@H](C(=O)N[C@H](C(=O)N1CCC[C@H]1C(=O)N[C@@H](Cc1ccc(O)cc1)C(=O)NCC(=O)N[C@@H](CC(C)C)C(=O)NCC(=O)N[C@@H](CO)C(=O)O)C(C)C)C(C)C)[C@@H](C)O)[C@@H](C)CC) [peptide 1s, fluorogenic ECE substrate]”, the Km in data set [3] was 22.1 ± 0.9 µM. Besides, the “metabolites produced when incubated with ECE” value with ECE [4] is reported as “only two metabolites”.

Turning to “Ac-Ser-Gly-PyA-Lys-Ala (Ac-SG[PyA″]KA) [peptide 3m, fluorescent metabolite of 3s formed by ECE]”, the “fluorescence of the metabolite over time” value in data set [2] was “not modified over several hours”.

“Ac-Ser-Gly-PyA-Lys-Ala-Phe-Ala-pNF-Gly-Lys NH2 (Ac-SG[PyA″]KAFA[Phe(4-NO2)]GK-NH2; SMILES CC(=O)N[C@@H](CO)C(=O)NCC(=O)N[C@@H](Cc1ccc2ccc3cccc4ccc1c2c34)C(=O)N[C@@H](CCCCN)C(=O)N[C@@H](C)C(=O)N[C@@H](Cc1ccccc1)C(=O)N[C@@H](C)C(=O)N[C@@H](Cc1ccc([N+](=O)[O-])cc1)C(=O)NCC(=O)N[C@@H](CCCCN)C(N)=O) [peptide 3s, fluorogenic ECE substrate]”: the “metabolites produced when incubated with ECE” value in the data set with ECE [4] is “only two metabolites”.
